Measurements from article PMC12564265, “Navigating the Deep Eutectic Solvent Landscape: Experimental and Machine Learning Solubility Explorations of Syringic, p-Coumaric, and Caffeic Acids” (International Journal of Molecular Sciences, 2025).

Legend:
[1] = Shake-flask solubility with spectrophotometric measurement in neat deep eutectic solvents; type: physicochemical
Method: (§1) In order to determine the solubility of the three studied phenolic acids in deep eutectic solvents, a very well-established shake-flask method coupled with spectrophotometric measurements was utilized. The initial procedure involved the preparation of various DESs, which was conducted by mixing their HBA and HBD counterparts in a glass vessel and heating the composition until the formation of a transparent, uniform liquid. […] For additional measurements, the DESs were mixed with water in varying proportions, creating aqueous DES systems. Saturated solutions of CAF, SYR, and COU were obtained by adding excess amounts of these compounds to test tubes containing either a neat deep eutectic solvent or its aqueous solution. Such samples were placed in the Orbital Shaker Incubator ES-20/60 from Biosan (Riga, Latvia) and heated for 24 h at 25 °C, 30 °C, 35 °C, and 40 °C (±0.1 °C) with simultaneous mixing at 60 rpm. Before measurements, the samples were filtered using a PTFE syringe filter from Qpore (Dallas, TX, USA) with a 0.22 μm pore size. In order to avoid possible precipitation of the saturated solutions at decreased temperatures, the test tubes, syringes, pipette tips, and filters were kept at a temperature identical to that of the samples. The spectrophotometric measurements required the preparation of calibration curves for the three APIs. This involved the preparation of a stock solution of each compound in methanol, which was later successfully diluted, and the obtained solutions of varying concentrations were measured using an A360 spectrophotometer from AOE Instruments (Shanghai, China). The wavelength range was set to 200-500 nm, and the resolution was 1 nm. The analytical wavelengths were determined to be 324 nm for caffeic acid, 273 nm for syringic acid, and 308 nm for p-coumaric acid. The final regression equations, obtained after averaging three distinct sets of measurements, are collected in Table 2 together with determination coefficients and limits of detection (LOD) and quantification (LOQ) for the calibration curves. The measurements of the samples were conducted with the same spectrophotometer and identical settings. Methanol was used for the dilution of the samples so that they could remain within the linearity range of the method. Complete spectra of the samples were recorded, but for the solubility determination, the absorbance values at a specific analytical wavelength were considered. These values were combined with the corresponding regression equations of the calibration curves and served for the calculation of the concentration of the three phenolic acids in the studied samples. The densities of such samples were also measured, and for this task 1 mL of each sample was weighed to a precision of 0.1 mg using an AS 110 R2.PLUS analytical balance from […] (Radom, Poland). The obtained densities enabled the calculation of mole fractions of CAF, SYR, and COU dissolved in the studied DESs. For each considered system, three distinct measurements were conducted, and the results were averaged.

[2] = Shake-flask solubility with spectrophotometric measurement in aqueous DES mixtures; type: physicochemical; conditions: Bet – TEG 1:2 + water
Method: as §1

Compound: COc1cc(C(=O)O)cc(OC)c1O [syringic acid, 4-hydroxy-3,5-dimethoxybenzoic acid]
- Mole fraction solubility ([1]; neat DES Bet - DEG, HBA:HBD molar ratio 1:1, 25 °C): 0.0235±0.0003 mole fraction
- Mole fraction solubility ([1]; neat DES Bet - DEG, HBA:HBD molar ratio 1:2, 25 °C): 0.0311±0.0002 mole fraction
- Mole fraction solubility ([1]; neat DES Bet - DEG, HBA:HBD molar ratio 1:4, 25 °C): 0.0283±0.0003 mole fraction
- Mole fraction solubility ([1]; neat DES Bet - ETG, HBA:HBD molar ratio 1:1, 25 °C): 0.0132±0.0001 mole fraction
- Mole fraction solubility ([1]; neat DES Bet - ETG, HBA:HBD molar ratio 1:2, 25 °C): 0.0274±0.0002 mole fraction
- Mole fraction solubility ([1]; neat DES Bet - ETG, HBA:HBD molar ratio 1:4, 25 °C): 0.0205±0.0002 mole fraction
- Mole fraction solubility ([1]; neat DES Bet - GLY, HBA:HBD molar ratio 1:1, 25 °C): 0.0203±0.0002 mole fraction
- Mole fraction solubility ([1]; neat DES Bet - GLY, HBA:HBD molar ratio 1:2, 25 °C): 0.0358±0.0003 mole fraction
- Mole fraction solubility ([1]; neat DES Bet - GLY, HBA:HBD molar ratio 1:4, 25 °C): 0.0300±0.0002 mole fraction
- Mole fraction solubility ([1]; neat DES Bet - TEG, HBA:HBD molar ratio 1:1, 25 °C): 0.0317±0.0003 mole fraction
- Mole fraction solubility ([1]; neat DES Bet - TEG, HBA:HBD molar ratio 1:2, 25 °C): 0.0474 mole fraction
- Mole fraction solubility ([1]; neat DES Bet - TEG, HBA:HBD molar ratio 1:2, 25 °C, listed as syryngic acid): 0.0474±0.0003 mole fraction
- Mole fraction solubility ([1]; neat DES Bet - TEG, HBA:HBD molar ratio 1:4, 25 °C): 0.0388±0.0003 mole fraction
- Mole fraction solubility ([1]; neat DES ChCl - DEG, HBA:HBD molar ratio 1:1, 25 °C): 0.0230±0.0004 mole fraction
- Mole fraction solubility ([1]; neat DES ChCl - DEG, HBA:HBD molar ratio 1:2, 25 °C): 0.0465±0.0004 mole fraction
- Mole fraction solubility ([1]; neat DES ChCl - ETG, HBA:HBD molar ratio 1:1, 25 °C): 0.0186±0.0002 mole fraction
- Mole fraction solubility ([1]; neat DES ChCl - ETG, HBA:HBD molar ratio 1:2, 25 °C): 0.0304±0.0002 mole fraction
- Mole fraction solubility ([1]; neat DES ChCl - ETG, HBA:HBD molar ratio 1:4, 25 °C): 0.0244±0.0002 mole fraction
- Mole fraction solubility ([1]; neat DES ChCl - TEG, HBA:HBD molar ratio 1:2, 25 °C): 0.0515 mole fraction
- Mole fraction solubility ([2]; x*DES 0.1, 25°C): 0.0042±0.0001 mole fraction
- Mole fraction solubility ([2]; x*DES 0.1, 30°C): 0.0046±0.0001 mole fraction
- Mole fraction solubility ([2]; x*DES 0.1, 35°C): 0.0057±0.0001 mole fraction
- Mole fraction solubility ([2]; x*DES 0.1, 40°C): 0.0067±0.0001 mole fraction
- Mole fraction solubility ([2]; x*DES 0.2, 25°C): 0.0093±0.0001 mole fraction
- Mole fraction solubility ([2]; x*DES 0.2, 30°C): 0.0105±0.0001 mole fraction
- Mole fraction solubility ([2]; x*DES 0.2, 35°C): 0.0127±0.0001 mole fraction
- Mole fraction solubility ([2]; x*DES 0.2, 40°C): 0.0148±0.0002 mole fraction
- Mole fraction solubility ([2]; x*DES 0.3, 25°C): 0.0153±0.0001 mole fraction
- Mole fraction solubility ([2]; x*DES 0.3, 30°C): 0.0173±0.0001 mole fraction
- Mole fraction solubility ([2]; x*DES 0.3, 35°C): 0.0207±0.0002 mole fraction
- Mole fraction solubility ([2]; x*DES 0.3, 40°C): 0.0239±0.0002 mole fraction
- Mole fraction solubility ([2]; x*DES 0.4, 25°C): 0.0214±0.0002 mole fraction
- Mole fraction solubility ([2]; x*DES 0.4, 30°C): 0.0247±0.0001 mole fraction
- Mole fraction solubility ([2]; x*DES 0.4, 35°C): 0.0290±0.0002 mole fraction
- Mole fraction solubility ([2]; x*DES 0.4, 40°C): 0.0341±0.0003 mole fraction
- Mole fraction solubility ([2]; x*DES 0.5, 25°C): 0.0284±0.0002 mole fraction
- Mole fraction solubility ([2]; x*DES 0.5, 30°C): 0.0318±0.0002 mole fraction
- Mole fraction solubility ([2]; x*DES 0.5, 35°C): 0.0386±0.0002 mole fraction
- Mole fraction solubility ([2]; x*DES 0.5, 40°C): 0.0457±0.0003 mole fraction
- Mole fraction solubility ([2]; x*DES 0.6, 25°C): 0.0351±0.0003 mole fraction
- Mole fraction solubility ([2]; x*DES 0.6, 30°C): 0.0396±0.0003 mole fraction
- Mole fraction solubility ([2]; x*DES 0.6, 35°C): 0.0475±0.0009 mole fraction
- Mole fraction solubility ([2]; x*DES 0.6, 40°C): 0.0568±0.0006 mole fraction
- Mole fraction solubility ([2]; x*DES 0.7, 25°C): 0.0425±0.0003 mole fraction
- Mole fraction solubility ([2]; x*DES 0.7, 30°C): 0.0483±0.0005 mole fraction
- Mole fraction solubility ([2]; x*DES 0.7, 35°C): 0.0579±0.0010 mole fraction
- Mole fraction solubility ([2]; x*DES 0.7, 40°C): 0.0702±0.0004 mole fraction
- Mole fraction solubility ([2]; x*DES 0.8, 30°C): 0.0558±0.0006 mole fraction
- Mole fraction solubility ([2]; x*DES 0.8, 35°C): 0.0673±0.0015 mole fraction
- Mole fraction solubility ([2]; x*DES 0.8, 40°C): 0.0790±0.0009 mole fraction
- Mole fraction solubility ([2]; x*DES 0.9, 25°C): 0.0488 mole fraction
- Mole fraction solubility ([2]; x*DES 0.9, 25°C, listed as syryngic acid): 0.0488±0.0004 mole fraction
